{"source": "patent US20250319139A1", "about": "“METHODS FOR TREATING NEUROINFLAMMATION” (University of Virginia Patent Foundation, priority 2021, published 2025)", "tested_on": "IL-17", "experiment": "ELISA of IL-17 in the brain", "assay_type": "in vivo, mouse", "protocol": "Mice were weighed and anesthetized with isoflurane at 24 h after MCAO. Blood samples were obtained from the right heart after thoracotomy. Blood was centrifuged (13,000 g, 4° C.) after it had been placed at 4° C. for 2 h for the collection of serum. After the collection of blood, mice were perfused with 4° C. saline for brain tissue harvesting. The cerebral cortex (anteroposterior: −1.5 to 2.5 mm, mediolateral: 1.0 to 3.0 mm) was dissected out. All dissection procedures were performed on ice.\nIL-10, IL-17, IL-1β and IL-6 in the serum and brain were detected by using ELISA kits (catalog number: M1000B, M1700, MLB00C and D6050, R&D SYSTEM, Inc., Minneapolis, MN, USA) as we described before. The brain tissues were homogenized on ice in the RIPA buffer containing 25 mM Tris-HCl with pH 7.6, 150 mM NaCl, 1% sodium deoxycholate and 0.1% SDS (catalog number: 89901, Thermo Scientific, Rockford, IL, USA) and a protease inhibitor cocktail containing 10 mg/ml aproteinin, 5 mg/ml peptastin, 5 mg/ml leupetin and 1 mM phenylmethane sulfonylfluoride (catalog number: SRE0055, Sigma-Aldrich, St. Louis, MO, USA). The supernatant was collected for ELISA detection after being centrifuged for 20 min (13,000 g, 4° C.) and the protein concentration was determined by the BCA method. Cytokines in the serum and supernatant of brain were detected according to the manufacturer's instruction. The amount of IL-10, IL-17, IL-1β and IL-6 in each sample in the brain was normalized by its protein content."}
{"smiles": "CCCCC(=O)O", "note": "[valeric acid]", "values": [{"measurement": "IL-17 in the brain (cerebral cortex)", "setting": "mice without MCAO, valeric sodium 100 mg/kg intraperitoneal for 7 days", "value": "increase"}, {"measurement": "IL-17 in the brain", "setting": "young mice with brain ischemia (120-min MCAO), intraperitoneal valeric acid", "value": "did not increase"}]}
